This note sets out measurements from US20250129101A1, “Compound, Pharmaceutical Composition Comprising the Same and Method for Treating Cancer Using the Same” (NATIONAL TSING HUA UNIVERSITY, priority 2023, published 2025).

Data set [1] concerns the target T1, KIF2C (Homo sapiens, UniProt Q99661).
T1 construct: KIF2C (216-598 a.a.); 6xHis (C); made in house; host or cells: E. coli BL21 (DE3), pET-28a
In words: In vitro validation: KIF2C kinesin activity, malachite green-based phosphate colorimetric assay. The data set is classed as biochemical. As to conditions: concentration that inhibits 50% of KIF2C activity. The method in brief: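 KIF2C sN+M construct (aa 216-598, C-terminal 6×His, E. coli-expressed) ATPase activity with microtubules from porcine brain tubulin or HEK293 (293Fs) cells in BRB80 (80 mM PIPES pH 6.8, 1 mM GTP, 10% DMSO), 37° C for 2 hr. Released phosphate detected by malachite green reagent, 10 min, A650.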

In data set [2] the test system is MDA-MB-231 cells. In words: Cell validation: cytotoxicity in MDA-MB-231 cells (CellTiter-Glo). The settings on record: for pIC50: Homo sapiens; for pIC50 / Cell validation (IC50): cytotoxicity in MDA-MB-231 cells. The data set is classed as cell-based. The essentials:
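MDA-MB-231 cells were seeded at 2000 cells/well and exposed to compounds for the specified number of days. Medium was then replaced with a 1:1 CellTiter-Glo reagent/serum-supplemented DMEM mix for 10 min, and viability was read as luminescence, proportional to living cell number.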
On the technique in general: ATP-based viability assays read luminescence as a measure of living cells.

Data set [3] deals with 4T1 R4 cells. In words: Cell viability assay, 4T1 R4 cells. The data set is classed as cell-based, mouse. The settings on record: for CI (combination index), MTA with 7S9: 2 μM 7S9, Chou and Talalay method; for IC50: 72 hr; for Fold change in chemosensitivity (IC50 single / 7S9 combination): 2 μM 7S9. Here is the method: (§1) MCF-7, MDA-MB-231, MDA-MB-468, Hs578T, 4T1, and HeLa cell lines stably expressing H2B-mCherry and eGFP-tubulin (kindly provided by Dr. Anthony A. Hyman, Max-Planck-Institute for Molecular Cell Biology and Genetics, Dresden, Germany) were cultured in high-glucose Dulbecco's Modified Eagle Medium (DMEM). SK-BR-3 cells were cultured in McCoy's Modified 5a Medium. Hs578T cells were cultured in high-glucose DMEM supplemented with an additional 0.01 mg/mL bovine insulin. […] All mentioned media were supplemented with 10% fetal bovine serum (Gibco) and 1% Penicillin/Streptomycin (Corning), and cells were incubated at 37° C. in a humidified atmosphere containing 5% CO2. HEK293 cells were cultured in HE300 medium (GMEP incorporated, Japan) and maintained in suspension culture with 125 rpm and 8% CO2.
(§2) The cancer cells were cultured in a 96-well plate at a confluence of 1000-2000 cells/well with indicated drugs for specific days. When the time was up, the culture medium in the plate was aspirated and replaced with a prepared CellTiter-Glo reagent/DMEM mixture (1:1 mix of CellTiter-Glo reagent and serum-supplemented DMEM). After incubation for 10 min, the luminescence (proportional to the number of living cells) was measured with an ELISA plate reader to determine the cell viability.

Data set [4] concerns 4T1 R8 cells. Briefly: Cell viability assay, 4T1 R8 cells. The settings on record: for CI (combination index), MTA with 7S9: 2 μM 7S9, Chou and Talalay method; for IC50: 72 hr; for Fold change in chemosensitivity (IC50 single / 7S9 combination): 2 μM 7S9. It counts as cell-based, mouse. Here is the method: as §1, §2
[5] abbreviates: Mus musculus, drug alone, read-out: IC50 (nM), Single.
[6] abbreviates: MTA with 2 μM 7S9, read-out: IC50 (nM), Combination.

pEC50, pIC50: −log10 of the molar value. Like-named read-outs stand apart in the source and are kept apart here.

T1 sequence (Q99661 216-598): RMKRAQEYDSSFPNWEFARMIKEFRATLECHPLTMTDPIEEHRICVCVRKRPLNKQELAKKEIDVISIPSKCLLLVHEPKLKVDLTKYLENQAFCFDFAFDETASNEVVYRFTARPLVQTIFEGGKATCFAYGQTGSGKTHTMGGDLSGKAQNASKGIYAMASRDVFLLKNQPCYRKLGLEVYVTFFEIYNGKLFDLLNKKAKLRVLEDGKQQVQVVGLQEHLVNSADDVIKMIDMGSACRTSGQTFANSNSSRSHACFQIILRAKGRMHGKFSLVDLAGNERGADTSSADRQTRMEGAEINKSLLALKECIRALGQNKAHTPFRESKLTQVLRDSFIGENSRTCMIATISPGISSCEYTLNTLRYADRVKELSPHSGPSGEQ

For `CCOC(=O)C1=C(C)N=c2s/c(=C\c3ccc(OCC(=O)O)cc3)c(=O)n2[C@H]1c1ccc(Cl)cc1` [55S0 (131)], the pEC50 in data set [1] is less than 4.00. In addition, in data set [2], the negative logarithm of the IC50 (pIC50) was less than 4.30.

In data set [1], `CC1=C(C(=O)OC(C)C)C(c2ccc(Cl)cc2)n2c(s/c(=C\c3ccc(OCC(=O)NS(=O)(=O)C(F)(F)F)cc3)c2=O)=N1` (centres unmarked) [56S0 (121), isopropyl (Z)-5-(4-chlorophenyl)-7-methyl-3-oxo-2-(4-(2-oxo-2-((trifluoromethyl)sulfonamido)ethoxy)benzylidene)-2,3-dihydro-5H-thiazolo[3,2-a]pyrimidine-6-carboxylate] showed a pEC50 of less than 4.00. In data set [2], this compound had a pIC50 of less than 4.30.

The compound `CCN1CCN(C(=O)COc2ccc(/C=c3\sc4n(c3=O)C(c3ccc(Cl)cc3)C(C(=O)OC(C)C)=C(C)N=4)cc2)CC1` (centres unmarked) [Compound 13S0] showed a pEC50 in data set [1] of 4.00 to 4.30. Also, the “cytotoxicity on MDA-MB-231 cells (in words)” value in data set [2] (72 hr) is “showed cytotoxicity”. In data set [2], the “Cell validation (IC50)” value is reported as “+ +”.

In data set [1], `CC1=C(C(=O)OC(C)C)C(c2ccc(Cl)cc2)n2c(s/c(=C\c3ccc(OCC(=O)NC4CCN(C)CC4)cc3)c2=O)=N1` (centres unmarked) [Compound 136] had a pEC50 of less than 4.00. The pIC50 in data set [2] was less than 4.30.

As for `CC1=C(C(=O)O)C(c2ccc(Cl)cc2)n2c(s/c(=C\c3ccc(OCC(=O)N4CCN(C)CC4)cc3)c2=O)=N1` (centres unmarked) [Compound 137], the pEC50 in data set [1] was more than 4.30. Moreover, the pIC50 in data set [2] was less than 4.30.

For `CC1=C(C(=O)OC(C)C)C(c2ccc(Cl)cc2)n2c(s/c(=C\c3ccc(OCC(=O)NCC4CCN(C)CC4)cc3)c2=O)=N1` (centres unmarked) [Compound 138], the pEC50 in data set [1] was 4.00 to 4.30. For the same compound, the pIC50 in data set [2] is 4.30 to 4.70.

In turn, `CC1=C(C(=O)OC(C)C)C(c2ccc(Cl)cc2)n2c(s/c(=C\c3ccc(OCC(=O)N4CCC(N(C)C)CC4)cc3)c2=O)=N1` (centres unmarked) [Compound 139] had a pEC50 in data set [1] of 4.00 to 4.30. The pIC50 in data set [2] was 4.30 to 4.70.

In the case of `CNc1ccc(C2C(C(=O)OC(C)C)=C(C)N=c3s/c(=C\c4ccc(OCC(=O)N5CCN(C)CC5)cc4)c(=O)n32)cc1` (centres unmarked) [Compound 140], the pEC50 in data set [1] is 4.00 to 4.30. Also, the pIC50 in data set [2] is 4.30 to 4.70.

Turning to `CC1=C(C(=O)OC(C)C)C(c2ccc(C(F)(F)F)cc2)n2c(s/c(=C\c3ccc(OCC(=O)N4CCN(C)CC4)cc3)c2=O)=N1` (centres unmarked) [Compound 141], in data set [1], the pEC50 was more than 4.30. The same compound gave a pIC50 in data set [2] of 4.30 to 4.70.

In turn, `CC1=C(C(=O)O)C(c2ccc(N(C)C)cc2)n2c(s/c(=C\c3ccc(OCC(=O)N4CCN(C)CC4)cc3)c2=O)=N1` (centres unmarked) [Compound 142] had a pEC50 in data set [1] of 4.00 to 4.30. In addition, the pIC50 in data set [2] is less than 4.30.

In data set [1], `CCOC(=O)C1=C(C)N=c2s/c(=C\c3ccc(OCC(=O)N4CCN(C)CC4)cc3)c(=O)n2C1c1ccc(N(C)C)cc1` (centres unmarked) [Compound 143] gave a pEC50 of 4.00 to 4.30. This compound also gave a pIC50 in data set [2] of 4.30 to 4.70.

As to `CC1=C(C(=O)OC(C)(C)C)C(c2ccc(N(C)C)cc2)n2c(s/c(=C\c3ccc(OCC(=O)N4CCN(C)CC4)cc3)c2=O)=N1` (centres unmarked) [Compound 144], the pEC50 in data set [1] was 4.00 to 4.30. The pIC50 in data set [2] is 4.30 to 4.70.

For `CCN1CCN(C(=O)COc2ccc(/C=c3\sc4n(c3=O)C(c3ccc(N(C)C)cc3)C(C(=O)O)=C(C)N=4)cc2)CC1` (centres unmarked) [Compound 145], the pEC50 in data set [1] is more than 4.30. For the same compound, the pIC50 in data set [2] was less than 4.30.

Consider `CCOC(=O)C1=C(C)N=c2s/c(=C\c3ccc(OCC(=O)N4CCN(CC)CC4)cc3)c(=O)n2C1c1ccc(N(C)C)cc1` (centres unmarked) [Compound 146], for which the pEC50 in data set [1] was more than 4.30. This compound also showed a pIC50 in data set [2] of 4.30 to 4.70.

In data set [1], `CCN1CCN(C(=O)COc2ccc(/C=c3\sc4n(c3=O)C(c3ccc(N(C)C)cc3)C(C(=O)OC(C)C)=C(C)N=4)cc2)CC1` (centres unmarked) [Compound 147] had a pEC50 of more than 4.30. Besides, in data set [2], the “Cell validation (IC50)” value is on record as “+ +”.

Turning to `CCN1CCN(C(=O)COc2ccc(/C=c3\sc4n(c3=O)C(c3ccc(N(C)C)cc3)C(C(=O)OC(C)(C)C)=C(C)N=4)cc2)CC1` (centres unmarked) [Compound 148], the pEC50 in data set [1] is more than 4.30. For the same compound, in data set [2], the “Cell validation (IC50)” value is “+ +”.

In data set [1], `CC1=C(C(=O)O)C(c2ccc(N(C)C)cc2)n2c(s/c(=C\c3ccc(OCC(=O)N4CCC(N5CCN(C)CC5)CC4)cc3)c2=O)=N1` (centres unmarked) [Compound 149] gave a pEC50 of more than 4.30. In data set [2], the pIC50 was less than 4.30.

As for `CCOC(=O)C1=C(C)N=c2s/c(=C\c3ccc(OCC(=O)N4CCC(N5CCN(C)CC5)CC4)cc3)c(=O)n2C1c1ccc(N(C)C)cc1` (centres unmarked) [Compound 150], the pEC50 in data set [1] is 4.00 to 4.30. The compound also had a pIC50 in data set [2] of 4.30 to 4.70.

In data set [1], `CC1=C(C(=O)OC(C)(C)C)C(c2ccc(N(C)C)cc2)n2c(s/c(=C\c3ccc(OCC(=O)N4CCC(N5CCN(C)CC5)CC4)cc3)c2=O)=N1` (centres unmarked) [Compound 152] had a pEC50 of 4.00 to 4.30. The same compound showed a pIC50 in data set [2] of 4.30 to 4.70.

With `CC(=O)O[C@@]12CO[C@@H]1C[C@H](O)[C@@]1(C)C(=O)[C@H](O)C3=C(C)[C@@H](OC(=O)[C@H](O)[C@@H](NC(=O)OC(C)(C)C)c4ccccc4)C[C@@](O)([C@@H](OC(=O)c4ccccc4)[C@H]21)C3(C)C` [Docetaxel, docetaxel], the “CI (combination index), MTA with 7S9” value amounted to 0.45 in data set [3] and 0.50 in data set [4]. For the same compound, the 50% inhibitory concentration (IC50) stood at 358 nM in data set [3] (setting [5]) and 208 nM in data set [4] (setting [5]).

On to `C=C1C[C@@H]2CC[C@@]34C[C@H]5O[C@H]6[C@@H](O3)[C@H]3O[C@H](CC[C@@H]3O[C@H]6[C@H]5O4)CC(=O)C[C@@H]3[C@@H](OC)[C@@H](C[C@H](O)CN)O[C@H]3C[C@H]3O[C@@H](CC[C@@H]1O2)C[C@@H](C)C3=C` [Eribulin, eribulin], for which the “Fold change in chemosensitivity (IC50 single / 7S9 combination)” value in data set [3] was determined as 30; in data set [4] it was 21. For the same compound, the “CI (combination index), MTA with 7S9” value in data set [3] is listed as 0.48; in data set [4] it was 0.54. Further, the IC50 came to 14.5 nM in data set [3] (setting [6]), 442 nM in data set [3] (setting [5]), 13.6 nM in data set [4] (setting [6]) and 284 nM in data set [4] (setting [5]).

As to `C/C(=C\c1csc(C)n1)[C@@H]1C[C@@H]2O[C@]2(C)CCC[C@H](C)[C@H](O)[C@@H](C)C(=O)C(C)(C)[C@@H](O)CC(=O)N1` [Ixabepilone, ixabepilone], the half-maximal inhibitory concentration (IC50) was found to be 358 nM in data set [3] (setting [5]) and 234 nM in data set [4] (setting [5]).

`CCC1=C[C@@H]2CN(C1)Cc1c([nH]c3ccccc13)[C@@](C(=O)OC)(c1cc3c(cc1OC)N(C)[C@H]1[C@@](O)(C(=O)OC)[C@H](OC(C)=O)[C@]4(CC)C=CCN5CC[C@]31[C@@H]54)C2` [Vinorelbine, vinorelbine]: the “Fold change in chemosensitivity (IC50 single / 7S9 combination)” value in data set [3] turned out to be 69; in data set [4], 43. In addition, the “CI (combination index), MTA with 7S9” value in data set [3] is listed as 0.46; in data set [4], 0.51. Further, the IC50 in data set [3] (setting [5]) was 159 nM; in data set [4] (setting [5]), 104 nM.

Broadly, the pEC50 is the EC50 on a negative log10 scale, so that one unit is a factor of ten. Lower therefore signals a high EC50. The term pIC50 denotes the IC50 on a negative log10 scale, so that one unit is a factor of ten. Broadly, the IC50 is the concentration needed to halve the response being measured.
